Reference: US10357589B2, “One component fibrin glue comprising a polymerization inhibitor” (Omrix Biopharmaceuticals Ltd., priority 2013, dated 2019)
Entries after “also recorded” stand apart in the source; their conditions may differ.

How the values were obtained:
fibrin monomers [1] = test: Time to clot of GPRP peptide:fibrin monomers mixture (cessation of flow when inverting the tube); assay type: biochemical; settings: 1% fibrin monomers, thrombin 10 or 100 IU/ml
fibrin monomers [2] = test: as above; assay type: biochemical
Description: A mixture of GPRP peptide:fibrin monomers was prepared as follows:
Fibrinogen final concentration used was 1%, 1.5%, 3%, 3.5%. A BAC2 solution [fibrinogen component of EVICEL®] containing 7% clottable fibrinogen was diluted in 20 mM sodium acetate (NaAcetate) buffer, pH 7.0 to obtain the final listed concentrations.
To form fibrin, thrombin (as in EVICEL® Fibrin Sealant) was added to the fibrinogen solution at a final concentration of 10 IU/ml or 100 IU/ml and then the time to clot was recorded. Clotting was assessed by cessation of flow when inverting the tube.
The fibrin monomer concentration was estimated as being equal to the fibrinogen concentration.
All of these (having a ratio of at most 57:1) are below the minimal ratio required for long term stabilization of fibrin monomers. The GPRP:fibrin solution was prepared as described above (by adding a GPRP peptide into a fibrinogen solution and adding thrombin into the GPRP:fibrinogen mix). Next, the time to clotting was recorded as above.

For Gly-Pro-Arg-Pro [GPRP], the Time to clot (fibrin monomers [1]; 5 mM GPRP, GPRP:fibrin 170 fold) was 4 h, the Time to clot (fibrin monomers [1]; 10 mM GPRP, GPRP:fibrin 340 fold) was 170 to 190 h and the Time to clot (fibrin monomers [2]; 1% fibrin monomers, 0.1 mM GPRP, GPRP:fibrin 3.4 fold, thrombin 10 or 100 IU/ml) was “immediately; also recorded: Immediate”. For the same substance, the Time to clot (fibrin monomers [2]; 3% fibrin monomers, 0.1 mM GPRP, GPRP:fibrin 1.1 fold) was 5 s, the Time to clot (fibrin monomers [2]; 3% fibrin monomers, 0.2 mM GPRP, GPRP:fibrin 2.3 fold) was 7 s and the Time to clot (fibrin monomers [2]; 3% fibrin monomers, 0.5 mM GPRP, GPRP:fibrin 5.7 fold) was 11 s. For the same substance, the Time to clot (fibrin monomers [2]; 3% fibrin monomers, 1 mM GPRP, GPRP:fibrin 11.3 fold) was 13 s, the Time to clot (fibrin monomers [2]; 3% fibrin monomers, 1.5 mM GPRP, GPRP:fibrin 17 fold) was 22 s and the Time to clot (fibrin monomers [2]; 3% fibrin monomers, 2 mM GPRP, GPRP:fibrin 22.7 fold) was 28 s. The Time to clot (fibrin monomers [2]; 3% fibrin monomers, 3 mM GPRP, GPRP:fibrin 34 fold) was 150 s, the Time to clot (fibrin monomers [2]; 3% fibrin monomers, 4 mM GPRP, GPRP:fibrin 45 fold) was 480 s and the Time to clot (fibrin monomers [2]; 3% fibrin monomers, 5 mM GPRP, GPRP:fibrin 56.7 fold) was 900 s.
